The target in experiment [1] is T1, human 11β-HSD1 (Homo sapiens, UniProt P28845). As to conditions: for IC50: read-out: Biological Test Example 2 IC50 Range, microsomes from CHO cells overexpressing human 11β-HSD1, SPA.
Procedure: (§1) All reactions are carried out at room temperature in 96 well clear flexible PET Microbeta plates (PerkinElmer). […] The reaction is stopped by adding 50 μl of the SPA beads suspension containing 10 μM 18β-glycyrrhetinic acid, 5 mg/ml protein A coated YSi SPA beads (GE Healthcare) and 3.3 μg/ml of anti-cortisol antibody (East Coast Biologics) in Superblock buffer (Bio-Rad). The plates are then shaken for 120 minutes at room temperature, and the SPA signal corresponding to [^3H]cortisol is measured on a Microbeta plate reader.
Experiment [2] addresses T1, human 11β-HSD1. Nature of the experiment: biochemical. The settings on record: for IC50: Biological Test Example 2 IC50 Range, microsomes from CHO cells overexpressing human 11β-HSD1, SPA; for inhibition at 0.1 µM: 1.5 h, read-out: Biological Test Example 2 Average % inhibition at 100 nm, at 100 nm.
Procedure: as §1

Read-outs that look alike come from different tables or passages of the source.

T1 sequence (P28845 whole entry): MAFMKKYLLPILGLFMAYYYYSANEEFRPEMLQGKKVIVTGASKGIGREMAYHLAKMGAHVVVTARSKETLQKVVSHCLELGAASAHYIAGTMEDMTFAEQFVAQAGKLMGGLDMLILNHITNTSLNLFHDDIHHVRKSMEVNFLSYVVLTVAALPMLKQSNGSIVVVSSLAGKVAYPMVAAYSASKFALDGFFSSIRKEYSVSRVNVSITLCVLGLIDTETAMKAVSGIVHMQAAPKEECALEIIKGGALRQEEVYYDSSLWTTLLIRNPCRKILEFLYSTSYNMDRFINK

As to `CC(C)(C)OC(=O)NCC1CN(C(=O)OC2C3CC4CC2CC(C(N)=O)(C4)C3)C1` (single isomer, unassigned) [Example 17 Isomer 1, (cis-1-carbamoyl-4-adamantyl) 3-((tert-butoxycarbonylamino)methyl)azetidine-1-carboxylate], the “Biological Test Example 2 Average % inhibition at 100 nm” value on human 11β-HSD1 [1] was 22.1%. Also, the IC50 – broadly, the concentration that inhibits the measured activity by half – on human 11β-HSD1 [2] was more than 100 nM.
Taken in the same sequence, the figures for `CC(C)(C)OC(=O)NCC1CN(C(=O)OC2C3CC4CC2CC(C(N)=O)(C4)C3)C1` (single isomer, unassigned) [Example 17 Isomer 2, (trans-1-carbamoyl-4-adamantyl) 3-((tert-butoxycarbonylamino)methyl)azetidine-1-carboxylate] were 92.8% and less than 100 nM.
In the same order, the values of `CC(C)COC(=O)NC1CCN(C(=O)OC2C3CC4CC2CC(C(N)=O)(C4)C3)C1` (single isomer, unassigned) [Example 18 Isomer 1, (cis-1-carbamoyl-4-adamantyl) (3R-(isobutoxycarbonylamino)pyrrolidine-1-carboxylate)] are 22.6% and more than 100 nM.
`NC(=O)C12CC3CC(C1)C(OC(=O)N1CC[C@@H](Nc4ncccn4)C1)C(C3)C2` (single isomer, unassigned) [Example 62 Isomer 2]: at human 11β-HSD1 [1], the “Biological Test Example 2 Average % inhibition at 100 nm” value was determined as 78.7% and the half-inhibitory concentration (IC50) was less than 100 nM.
Take `N#Cc1ccc(N[C@@H]2CCN(C(=O)NC3CC4CCC(C3)N4C(N)=O)C2)nc1` (single isomer, unassigned) [Example 104 Isomer 1]: on human 11β-HSD1 [1], the “Biological Test Example 2 Average % inhibition at 111 nm” value is recorded as −6.2% and the IC50 was more than 1000 nM.
In the same order, the values of `N#Cc1ccc(N[C@@H]2CCN(C(=O)NC3CC4CCC(C3)N4C(N)=O)C2)nc1` (single isomer, unassigned) [Example 104 Isomer 2] are −6.1% and more than 1000 nM.
Consider `N#Cc1ccc(N[C@@H]2CCN(C(=O)OC3C4CC5CC3CC(C(=O)NC3CC3)(C5)C4)C2)nc1` (single isomer, unassigned) [Example 118 Isomer 2], for which, at human 11β-HSD1 [1], the “Biological Test Example 2 Average % inhibition at 100 nm” value came to 7.15% and the IC50 was more than 100 nM.
Turning to `O=C(NC1CC1)c1cc(Cl)cnc1N[C@@H]1CCN(C(=O)O[C@H]2C3CC4CC2C[C@](O)(C4)C3)C1` [Example 101, (R)-(trans-1-hydroxy-4-adamantyl) 3-(5-chloro-3-(cyclopropylcarbamoyl)pyridin-2-ylamino)pyrrolidine-1-carboxylate], on human 11β-HSD1 [2], the inhibition (commonly the percentage by which the read-out fell short of the control) at 0.1 µM was 82.6% and the half-inhibitory concentration (IC50) was less than 100 nM.
In the case of `CC(C)(C)NC(=O)c1cc(Cl)cnc1N[C@@H]1CCN(C(=O)O[C@H]2C3CC4CC2C[C@](O)(C4)C3)C1` [Example 102, (R)-(trans-1-hydroxy-4-adamantyl) 3-(3-(tert-butylcarbamoyl)-5-chloropyridin-2-ylamino)pyrrolidine-1-carboxylate], at human 11β-HSD1 [2], the inhibition at 0.1 µM was found to be 78.7% and the concentration for half-maximal inhibition (IC50) was less than 100 nM.
Taken in the same sequence, the figures for `O=C(NC1CC1)c1ccc2nc(N[C@@H]3CCN(C(=O)O[C@H]4C5CC6CC4C[C@](O)(C6)C5)C3)sc2c1` [Example 103, (R)-(trans-1-hydroxy-4-adamantyl) 3-(6-(cyclopropylcarbamoyl)benzo[d]thiazol-2-ylamino)pyrrolidine-1-carboxylate] were 88.8% and less than 100 nM.
Taken in the same sequence, the figures for `N#Cc1ccc(N[C@@H]2CCN(C(=O)O[C@H]3C[C@H]4CC[C@@H](C3)N4C(N)=O)C2)nc1` [Example 105, (3R)-8-carbamoyl-8-azabicyclo[3.2.1]octan-3-yl 3-(5-cyanopyridin-2-ylamino)pyrrolidine-1-carboxylate] were 14.8% and more than 100 nM.
In the same order, the values of `CS(=O)(=O)N1C2CCC1CC(NC(=O)N1CC[C@@H](Nc3ccc(C#N)cn3)C1)C2` (stereo partly drawn) [Example 106, (3R)-3-(5-cyanopyridin-2-ylamino)-N-(8-(methylsulfonyl)-8-azabicyclo[3.2.1]octan-3-yl)pyrrolidine-1-carboxamide] are 3.9% and more than 100 nM.
For `COC(=O)c1cnc(N[C@@H]2CCN(C(=O)O[C@H]3C4CC5CC3C[C@](O)(C5)C4)C2)nc1` [Example 107, Methyl 2-((R)-1-((trans-1-hydroxy-4-adamantyloxy)carbonyl)pyrrolidin-3-ylamino)pyrimidine-5-carboxylate], the concentration for half-maximal inhibition (IC50) at human 11β-HSD1 [2] is less than 100 nM.
As to `O=C(O)c1cnc(N[C@@H]2CCN(C(=O)O[C@H]3C4CC5CC3C[C@](O)(C5)C4)C2)nc1` [Example 108, 2-((R)-1-((trans-1-hydroxy-4-adamantyloxy)carbonyl)pyrrolidin-3-ylamino)pyrimidine-5-carboxylic acid], at human 11β-HSD1 [2], the inhibition at 0.1 µM is 14.2% and the concentration for half-maximal inhibition (IC50) is more than 100 nM.
Taken in the same sequence, the figures for `NC(=O)c1cnc(N[C@@H]2CCN(C(=O)O[C@H]3C4CC5CC3C[C@](O)(C5)C4)C2)nc1` [Example 109, (R)-(trans-1-hydroxy-4-adamantyl) 3-(5-carbamoylpyrimidin-2-ylamino)pyrrolidine-1-carboxylate] were 50.1% and less than 100 nM.
Taken in the same sequence, the figures for `CNC(=O)c1cnc(N[C@@H]2CCN(C(=O)O[C@H]3C4CC5CC3C[C@](O)(C5)C4)C2)nc1` [Example 110, (R)-(trans-1-hydroxy-4-adamantyl) 3-(5-(methylcarbamoyl)pyrimidin-2-ylamino)pyrrolidine-1-carboxylate] were 32.2% and more than 100 nM.
In the same order, the values of `CN(C)C(=O)c1cnc(N[C@@H]2CCN(C(=O)O[C@H]3C4CC5CC3C[C@](O)(C5)C4)C2)nc1` [Example 111, (R)-(trans-1-hydroxy-4-adamantyl) 3-(5-(dimethylcarbamoyl)pyrimidin-2-ylamino)pyrrolidine-1-carboxylate] are 33.5% and more than 100 nM.
Take `O=C(NC1CC1)c1cnc(N[C@@H]2CCN(C(=O)O[C@H]3C4CC5CC3C[C@](O)(C5)C4)C2)nc1` [Example 112, (R)-(trans-1-hydroxy-4-adamantyl) 3-(5-(cyclopropylcarbamoyl)pyrimidin-2-ylamino)pyrrolidine-1-carboxylate]: at human 11β-HSD1 [2], the inhibition at 0.1 µM worked out at 33.3% and the IC50 is more than 100 nM.
Taken in the same sequence, the figures for `CC(C)(C)OC(=O)NC1(C(F)(F)F)CCN(C(=O)O[C@H]2C3CC4CC2C[C@](C(N)=O)(C4)C3)C1` (stereo partly drawn) [Example 113, (trans-1-carbamoyl-4-adamantyl) 3-(tert-butoxycarbonylamino)-3-(trifluoromethyl)pyrrolidine-1-carboxylate] were 92% and less than 100 nM.
Taken in the same sequence, the figures for `NC(=O)C12CC3CC(C1)C(OC(=O)N1CC[C@@H](Nc4ccc(F)cn4)C1)C(C3)C2` (some centres unmarked) [Example 115] were 95.2% and less than 100 nM.
Take `N#Cc1ccc(N[C@@H]2CCN(C(=O)O[C@H]3C4CC5CC3C[C@](C(N)=O)(C5)C4)C2)nn1` [Example 116, (R)-(trans-1-carbamoyl-4-adamantyl) 3-(6-cyanopyridazin-3-ylamino)pyrrolidine-1-carboxylate]: on human 11β-HSD1 [2], the inhibition at 0.1 µM was found to be 71.4% and the IC50 is less than 100 nM.

The record behind these values is US8828985B2, “Carbamate and urea inhibitors of 11-beta-hydroxysteroid dehydrogenase 1” (Vitae Pharmaceuticals, Inc., priority 2008, dated 2014).
